Experimental data reported in patent publication US12673132B2, “Extrusion printing of biocompatible scaffolds” (William Marsh Rice University, priority 2020, dated 2026).
No end group written: not given here.

Tests used:
[1] = tested on: Rat bone marrow derived MSCs; assay: PicoGreen assay (DNA content) of MSC-seeded printed scaffolds; format: cell-based; details: osteogenic and osteochondral media, up to 28 days, FIG. 5A
Excerpt: (§1) Rat bone marrow derived MSCs (mesenchymal stem cells) were harvested by aspiration of bone marrow from the tibia of five 6-8 week old male Fischer 344 rats from Charles River Laboratories (Wilmington, MA), in accordance with protocols approved by the Rice Institutional Animal Care and Use Committee and in agreement with the animal care and use guidelines set forth by the National Institutes of Health. Cells from all rats were pooled to minimize inter-animal variability. Adherent cells were cultured in growth medium (DMEM with 10% v/v FBS and 1% v/v antibiotic-antimycotic) inside a humidified incubator at 37° C. and 5% CO2, and cryopreserved in liquid N2 until point of usage. All MSCs were used at Passage 3. Printed constructs were sterilized by exposure of both sides to UV light for 3 h, immersion in a sterile gradient (100%, 75%, 50%, 25%, 0%) of ethanol and PBS, and two additional washes in PBS. […] After weighing, each scaffold was frozen at −20° C. until ready for characterization. […] After homogenization, the proteinase K and acetic acid suspensions were allowed to digest for 16 h at 65° C. and room temperature, respectively, followed by quantification of biochemical content using assay kits. […] The bioactivity of PCL-peptide composites was determined by seeding MSCs on 3D printed constructs and investigating their ability to promote bone- and cartilage-specific ECM deposition in vitro. […]

[2] = tested on: Rat bone marrow derived MSCs; assay: DMMB assay (cartilage-specific sulfated glycosaminoglycans) of MSC-seeded printed scaffolds; format: cell-based
Excerpt: as §1, with “PBS. MSCs were seeded on the scaffolds by pipetting 30 μL of a 3.3×10^6 cells/mL suspension on top of each scaffold in a low-attachment 24-well plate. After 2 h, 970 μL of growth medium was gently added to each well. After 24 h of cell attachment, the growth medium was replaced with either chondrogenic, osteogenic, or osteochondral medium. Parallel chondrogenic (PCL-alkyne, PCL-NC) and osteogenic (PCL-alkyne, PCL-GHK) studies were conducted, in which scaffolds were cultured in both tissue-specific medium as well as mixed osteochondral medium.” for “PBS.”

[3] = tested on: Rat bone marrow derived MSCs; assay: Arsenazo III assay (bone-specific mineralization) of MSC-seeded printed scaffolds; format: cell-based; details: mixed osteochondral medium
Excerpt: as §1

[4] = microCT physical characterization of 3D printed PCL constructs; format: physicochemical; details: melt-extruded 4-layer crosshatch scaffold
Experimental: The 3D printed PCL constructs were fabricated by melt extrusion with an EnvisionTEC 3D Bioplotter Manufacturer (Gladbeck, Germany). The polymer of interest was placed in a metal cartridge, heated to 85-95° C., and extruded through a 27G needle at 4.9-5.1 bar pressure, 4.0 mm/s deposition speed, and 0.4 s pre-flow and post-flow, with imaging after each layer. Constructs were printed as a cylindrical, alternating crosshatch pattern with 4 layers of 5 mm diameter and 220 μm thickness, producing scaffolds with total dimensions of 5 mm diameter and 0.88 mm height. The porosity, average fiber diameter, and average pore diameter of each construct was assessed by microcomputed tomography (μCT) using a Bruker SkyScan 1272 (Billerica, MA). Scans were acquired at a voltage of 40 kV and a current of 250 μA, with a rotation step size of 0.4°, 8 μm/pixel, frame averaging of 6, and random movement of 10. Reconstruction, slicing, and analysis were performed in Bruker NRecon and CTAn software (Billerica, MA) and LabView (Austin, TX). For quantification of physical architectural properties, a proportional volume of interest was set at 75% scale of the x, v, and z axes, equally spaced from the scaffold edges.

Substance	DNA content normalized to scaffold mass (cell proliferation) [1]	sGAG content normalized to cellular content (sGAG deposition per cell) ([2]; chondrogenic medium, up to day 28, FIG. 5D)	sGAG content normalized to cellular content (sGAG deposition per cell) ([2]; mixed osteochondral medium, over time, FIG. 5D)	sGAG content normalized to scaffold mass ([2]; serum-free chondrogenic medium, FIG. 5E)	Bone-specific calcium content normalized to cellular content (mineralization per cell) ([3]; FIG. 5B)	Bone-specific calcium content normalized to scaffold mass (scaffold mineralization) ([3]; FIG. 5C)	Average Fiber Diameter [4] [μm]	Average Pore Diameter [4] [μm]	Porosity [4] [%]
PCL-NC: PCL-alkyne click-conjugated to azide-terminated N-cadherin peptide (SEQ ID NO: 3, GGGHAVDI) (GGGHAVDI-NH2; not fully specified (N-terminus); also: N-terminal azide click-conjugated to PCL-alkyne)	statistically lower proliferation	large spike in cartilage-specific sGAG deposition per cell by day 28	maintained a constant level of sGAG deposition per cell	statistically significant increase in mass-normalized sGAG content	greater mineralization per cell	did not produce statistically significant effects on scaffold mineralization	200 ± 9	432 ± 31	71.8 ± 3.7
PCL-BMPm: PCL-alkyne click-conjugated to azide-terminated bone morphogenetic protein mimetic peptide (SEQ ID NO: 1, GGGRHVRISRSL) (GGGRHVRISRSL-NH2; not fully specified (N-terminus); also: N-terminal azide click-conjugated to PCL-alkyne)							262 ± 48	419 ± 37	70.7 ± 4.2
